Test results: patent US8404679B2, “Pyrrolidine derivatives as NK2 receptor antagonists” (Hoffmann-La Roche Inc., priority 2008, dated 2013)

target: T1, human NK2 receptor (Homo sapiens, UniProt P21452); test: [3H]SR48968 competition binding assay; details: [3H]SR48968 displacement, membranes of CHO cells stably expressing recombinant human NK2 receptor; Ki from IC50 by Cheng-Prussoff
T1 construct: purchased Perkin Elmer biosignal Inc. 6110510
T1 sequence (P21452 1-398): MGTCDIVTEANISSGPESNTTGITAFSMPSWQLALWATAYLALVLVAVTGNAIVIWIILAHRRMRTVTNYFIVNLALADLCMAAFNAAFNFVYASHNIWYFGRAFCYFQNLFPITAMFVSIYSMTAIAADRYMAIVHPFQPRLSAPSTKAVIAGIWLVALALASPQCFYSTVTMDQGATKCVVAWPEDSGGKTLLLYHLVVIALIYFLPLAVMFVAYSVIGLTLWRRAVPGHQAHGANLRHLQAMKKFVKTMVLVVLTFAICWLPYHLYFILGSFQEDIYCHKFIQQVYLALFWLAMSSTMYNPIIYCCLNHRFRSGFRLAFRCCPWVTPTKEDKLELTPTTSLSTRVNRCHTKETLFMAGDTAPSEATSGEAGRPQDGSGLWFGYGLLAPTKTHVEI
Experimental: [^3H]SR48968 Competition Binding Assay
hNK2 receptor binding experiment were performed using [^3H]SR48968 (Catalog No. TRK398, specific activity: 27.0 Ci/mmol, Amersham, GE Healthcare UK limited, Buckinghamshire, UK) and membrane isolated from CHO cells stably expressing recombinant human NK2 receptor (product No. 6110510, Perkin Elmer biosignal Inc., Shelton, Conn., USA). After thawing, the membrane homogenates were centrifuged at 48,000×g for 10 min at 4° C., the pellets were resuspended in the 50 mM Tris-HCl, 3 mM MnCl2, 4 μg/mL Chymostatin, 0.04% BSA binding buffer at pH 7.4 to a final assay concentration of 6.5 μg protein/well. For inhibition experiments, membranes were incubated with [^3H]SR48968 at a concentration equal to KD value of radioligand and 10 concentrations of the inhibitory compound (0.0003-10 μM) (in a total reaction volume of 500 μl) for 75 min at room temperature (RT). At the end of the incubation, membranes were filtered onto unitfilter (96-well white microplate with bonded GF/C filter preincubated 1 h in 0.3% polyethylenimine, Packard BioScience, Meriden, Conn.) with a Filtermate 196 harvester (Packard BioScience) and washed 4 times with ice-cold 50 mM Tris-HCl, pH 7.4 buffer. Nonspecific binding was measured in the presence of 10 μM 1-{2-[(R)-3-(3,4-dichloro-phenyl)-1-(3,4,5-trimethoxy-benzoyl)-pyrrolidin-3-yl]-ethyl}-4-phenyl-piperidine-4-carboxylic acid amide. The radioactivity on the filter was counted (5 min) on a Packard Top-count microplate scintillation counter with quenching correction after addition of 45 μl of microscint 40 (Canberra Packard S. A., Zürich, Switzerland) and shaking for 1 h. Inhibition curves were fitted according to the Hill equation: y=100/(1+(x/IC50)^nH), where nH=slope factor using Excel-fit 4 software (Microsoft). IC50 values were derived from the inhibition curve and the affinity constant (Ki) values were calculated using the Cheng-Prussoff equation Ki=IC50/(1+[L]/KD) where [L] was the concentration of radioligand and KD was its dissociation constant at the receptor, derived from the saturation isotherm.

Ki [µM] | Compound
0.0107 | COc1ccc(C(=O)N(C)[C@@H]2CN(C(=O)N3CCN(S(C)(=O)=O)CC3)C[C@H]2c2ccc(Cl)cc2)cc1C(F)(F)F (racemic) [Example 6, rac-N-[(3S,4R)-4-(4-Chloro-phenyl)-1-(4-methanesulfonyl-piperazine-1-carbonyl)-pyrrolidin-3-yl]-4-methoxy-N-methyl-3-trifluoromethyl-benzamide]
0.0339 | CN(C(=O)c1cccc(C(F)(F)F)c1)[C@@H]1CN(C(=O)N2CCN(S(C)(=O)=O)CC2)C[C@H]1c1ccc(Cl)cc1 (racemic) [Example 7, rac-N-[(3S,4R)-4-(4-Chloro-phenyl)-1-(4-methanesulfonyl-piperazine-1-carbonyl)-pyrrolidin-3-yl]-N-methyl-3-trifluoromethyl-benzamide]
0.00233 | COc1ccc(C(=O)N(C)[C@@H]2CN(C(=O)N3CCN(S(C)(=O)=O)CC3)C[C@H]2c2ccc(Cl)c(Cl)c2)cc1C(F)(F)F (racemic) [Example 8, rac-N-[(3S,4R)-4-(3,4-Dichloro-phenyl)-1-(4-methanesulfonyl-piperazine-1-carbonyl)-pyrrolidin-3-yl]-4-methoxy-N-methyl-3-trifluoromethyl-benzamide]
0.0869 | CN(C(=O)c1ccccc1)[C@@H]1CN(C(=O)N2CCN(S(C)(=O)=O)CC2)C[C@H]1c1ccc(Cl)c(Cl)c1 (racemic) [Example 9, rac-N-[(3S,4R)-4-(3,4-Dichloro-phenyl)-1-(4-methanesulfonyl-piperazine-1-carbonyl)-pyrrolidin-3-yl]-N-methyl-benzamide]
0.0288 | CN(C(=O)c1ccc(F)cc1)[C@@H]1CN(C(=O)N2CCN(S(C)(=O)=O)CC2)C[C@H]1c1ccc(Cl)c(Cl)c1 (racemic) [Example 10, rac-N-[(3S,4R)-4-(3,4-Dichloro-phenyl)-1-(4-methanesulfonyl-piperazine-1-carbonyl)-pyrrolidin-3-yl]-4-fluoro-N-methyl-benzamide]
0.0143 | CN(C(=O)c1cccc(Cl)c1)[C@@H]1CN(C(=O)N2CCN(S(C)(=O)=O)CC2)C[C@H]1c1ccc(Cl)c(Cl)c1 (racemic) [Example 11, rac-3-Chloro-N-[(3S,4R)-4-(3,4-dichloro-phenyl)-1-(4-methanesulfonyl-piperazine-1-carbonyl)-pyrrolidin-3-yl]-N-methyl-benzamide]
0.00275 | CN(C(=O)c1ccc(Cl)cc1)[C@@H]1CN(C(=O)N2CCN(S(C)(=O)=O)CC2)C[C@H]1c1ccc(Cl)c(Cl)c1 (racemic) [Example 12, rac-4-Chloro-N-[(3S,4R)-4-(3,4-dichloro-phenyl)-1-(4-methanesulfonyl-piperazine-1-carbonyl)-pyrrolidin-3-yl]-N-methyl-benzamide]
0.0237 | CN(C(=O)c1ccc(C#N)cc1)[C@@H]1CN(C(=O)N2CCN(S(C)(=O)=O)CC2)C[C@H]1c1ccc(Cl)c(Cl)c1 (racemic) [Example 13, rac-4-Cyano-N-[(3S,4R)-4-(3,4-dichloro-phenyl)-1-(4-methanesulfonyl-piperazine-1-carbonyl)-pyrrolidin-3-yl]-N-methyl-benzamide]
0.00117 | CCc1ccc(C(=O)N(C)[C@@H]2CN(C(=O)N3CCN(S(C)(=O)=O)CC3)C[C@H]2c2ccc(Cl)c(Cl)c2)cc1 (racemic) [Example 14, rac-N-[(3S,4R)-4-(3,4-Dichloro-phenyl)-1-(4-methanesulfonyl-piperazine-1-carbonyl)-pyrrolidin-3-yl]-4-ethyl-N-methyl-benzamide]
0.0652 | CN(C(=O)c1cccc(C#N)c1)[C@@H]1CN(C(=O)N2CCN(S(C)(=O)=O)CC2)C[C@H]1c1ccc(Cl)c(Cl)c1 (racemic) [Example 15, rac-3-Cyano-N-[(3S,4R)-4-(3,4-dichloro-phenyl)-1-(4-methanesulfonyl-piperazine-1-carbonyl)-pyrrolidin-3-yl]-N-methyl-benzamide]
0.00509 | CN(C(=O)c1ccc(OC(F)(F)F)cc1)[C@@H]1CN(C(=O)N2CCN(S(C)(=O)=O)CC2)C[C@H]1c1ccc(Cl)c(Cl)c1 (racemic) [Example 16, rac-N-[(3S,4R)-4-(3,4-Dichloro-phenyl)-1-(4-methanesulfonyl-piperazine-1-carbonyl)-pyrrolidin-3-yl]-N-methyl-4-trifluoromethoxy-benzamide]
0.0953 | CN(C(=O)c1cccc(F)c1)[C@@H]1CN(C(=O)N2CCN(S(C)(=O)=O)CC2)C[C@H]1c1ccc(Cl)c(Cl)c1 (racemic) [Example 17, rac-N-[(3S,4R)-4-(3,4-Dichloro-phenyl)-1-(4-methanesulfonyl-piperazine-1-carbonyl)-pyrrolidin-3-yl]-3-fluoro-N-methyl-benzamide]
0.0207 | CN(C(=O)c1cc(F)cc(C(F)(F)F)c1)[C@@H]1CN(C(=O)N2CCN(S(C)(=O)=O)CC2)C[C@H]1c1ccc(Cl)c(Cl)c1 (racemic) [Example 18, rac-N-[(3S,4R)-4-(3,4-Dichloro-phenyl)-1-(4-methanesulfonyl-piperazine-1-carbonyl)-pyrrolidin-3-yl]-3-fluoro-N-methyl-5-trifluoromethyl-benzamide]
0.00244 | CN(C(=O)c1ccc(C(F)(F)F)c(F)c1)[C@@H]1CN(C(=O)N2CCN(S(C)(=O)=O)CC2)C[C@H]1c1ccc(Cl)c(Cl)c1 (racemic) [Example 20, rac-N-[(3S,4R)-4-(3,4-Dichloro-phenyl)-1-(4-methanesulfonyl-piperazine-1-carbonyl)-pyrrolidin-3-yl]-3-fluoro-N-methyl-4-trifluoromethyl-benzamide]
0.0131 | CN(C(=O)c1cccc(Cl)c1F)[C@@H]1CN(C(=O)N2CCN(S(C)(=O)=O)CC2)C[C@H]1c1ccc(Cl)c(Cl)c1 (racemic) [Example 21, rac-3-Chloro-N-[(3S,4R)-4-(3,4-dichloro-phenyl)-1-(4-methanesulfonyl-piperazine-1-carbonyl)-pyrrolidin-3-yl]-2-fluoro-N-methyl-benzamide]
0.00463 | CN(C(=O)c1cccc(C(F)(F)F)c1F)[C@@H]1CN(C(=O)N2CCN(S(C)(=O)=O)CC2)C[C@H]1c1ccc(Cl)c(Cl)c1 (racemic) [Example 22, rac-N-[(3S,4R)-4-(3,4-Dichloro-phenyl)-1-(4-methanesulfonyl-piperazine-1-carbonyl)-pyrrolidin-3-yl]-2-fluoro-N-methyl-3-trifluoromethyl-benzamide]
0.0102 | CN(C(=O)c1ccc2occc2c1)[C@@H]1CN(C(=O)N2CCN(S(C)(=O)=O)CC2)C[C@H]1c1ccc(Cl)c(Cl)c1 (racemic) [Example 23, rac-Benzofuran-5-carboxylic acid [(3S,4R)-4-(3,4-dichloro-phenyl)-1-(4-methanesulfonyl-piperazine-1-carbonyl)-pyrrolidin-3-yl]-methyl-amide]
0.00172 | CN(C)c1ccc(C(=O)N(C)[C@@H]2CN(C(=O)N3CCN(S(C)(=O)=O)CC3)C[C@H]2c2ccc(Cl)c(Cl)c2)cc1 (racemic) [Example 24, rac-N-[(3S,4R)-4-(3,4-Dichloro-phenyl)-1-(4-methanesulfonyl-piperazine-1-carbonyl)-pyrrolidin-3-yl]-4-dimethylamino-N-methyl-benzamide]
0.00601 | Cc1cc(C(=O)N(C)[C@@H]2CN(C(=O)N3CCN(S(C)(=O)=O)CC3)C[C@H]2c2ccc(Cl)c(Cl)c2)ccc1F (racemic) [Example 25, rac-N-[(3S,4R)-4-(3,4-Dichloro-phenyl)-1-(4-methanesulfonyl-piperazine-1-carbonyl)-pyrrolidin-3-yl]-4-fluoro-3,N-dimethyl-benzamide]
0.00945 | COc1ccc(C(=O)N(C)[C@@H]2CN(C(=O)N3CCN(S(C)(=O)=O)CC3)C[C@H]2c2ccc(Cl)c(Cl)c2)cc1F (racemic) [Example 26, rac-N-[(3S,4R)-4-(3,4-Dichloro-phenyl)-1-(4-methanesulfonyl-piperazine-1-carbonyl)-pyrrolidin-3-yl]-3-fluoro-4-methoxy-N-methyl-benzamide]
0.0162 | CN(C(=O)c1ccc(F)c(F)c1)[C@@H]1CN(C(=O)N2CCN(S(C)(=O)=O)CC2)C[C@H]1c1ccc(Cl)c(Cl)c1 (racemic) [Example 27, rac-N-[(3S,4R)-4-(3,4-Dichloro-phenyl)-1-(4-methanesulfonyl-piperazine-1-carbonyl)-pyrrolidin-3-yl]-3,4-difluoro-N-methyl-benzamide]
